Several values for one entry are separate records, joined by “and”; a condition that tells them apart may be missing. Equal entries are not always repeated.
Conditions: 101.33 kPa, Liquid; for mass density: Vibrating tube method

CCOS(=O)(=O)[O-].CCn1cc[n+](C)c1 [1-ethyl-3-methylimidazolium ethyl sulfate]
Conditions	viscosity
278.15 K, Concentric cylinders viscometry	329 mPa·s
283.15 K, Concentric cylinders viscometry	234.5 mPa·s
288.15 K, Concentric cylinders viscometry	172.2 mPa·s
293.15 K, Concentric cylinders viscometry	130.1 mPa·s
298.15 K, Concentric cylinders viscometry	100 mPa·s
298.52 K, Vibrating wire viscometry	97.32 mPa·s and 98.21 mPa·s
303.15 K, Concentric cylinders viscometry	78.66 mPa·s
303.34 K, Vibrating wire viscometry	76.57 mPa·s
303.38 K, Vibrating wire viscometry	76.99 mPa·s
303.64 K, Vibrating wire viscometry	76.57 mPa·s
308.15 K, Concentric cylinders viscometry	62.99 mPa·s
308.21 K, Vibrating wire viscometry	61.5 mPa·s
313.15 K, Concentric cylinders viscometry	51.59 mPa·s
313.23 K, Vibrating wire viscometry	51.09 mPa·s
313.24 K, Vibrating wire viscometry	50.47 mPa·s
318.15 K, Concentric cylinders viscometry	42.36 mPa·s
318.43 K, Vibrating wire viscometry	41.55 mPa·s
322.6 K, Vibrating wire viscometry	36.51 mPa·s
323.02 K, Vibrating wire viscometry	35.9 mPa·s
323.15 K, Concentric cylinders viscometry	35.43 mPa·s
328.15 K, Concentric cylinders viscometry	29.98 mPa·s
333.15 K, Concentric cylinders viscometry	25.64 mPa·s
338.15 K, Concentric cylinders viscometry	22.13 mPa·s
343.15 K, Concentric cylinders viscometry	19.27 mPa·s
348.15 K, Concentric cylinders viscometry	16.91 mPa·s
353.15 K, Concentric cylinders viscometry	15.03 mPa·s
358.15 K, Concentric cylinders viscometry	13.3 mPa·s
363.15 K, Concentric cylinders viscometry	11.9 mPa·s
368.15 K, Concentric cylinders viscometry	10.71 mPa·s
373.15 K, Concentric cylinders viscometry	9.69 mPa·s

Conditions	mass density [kg/m3]
278.15 K	1251.2
283.15 K	1247.3
288.15 K	1243.7
293.15 K	1240.1
298.15 K	1236.7
303.15 K	1233.3
308.15 K	1229.9
313.15 K	1226.5
318.15 K	1223.2
323.15 K	1219.9
328.15 K	1216.6
333.15 K	1213.4
338.15 K	1210.2
343.15 K	1206.9
348.15 K	1203.6
353.15 K	1200.1
358.15 K	1196.6
363.15 K	1193.4
368.15 K	1190.5
373.15 K	1187.4
